In BigSolDB 2.1:

c1ccc(OP2(Oc3ccccc3)=NP(Oc3ccccc3)(Oc3ccccc3)=NP(Oc3ccccc3)(Oc3ccccc3)=N2)cc1
Details | solubility (mole fraction)
in 2-ethoxyethanol, 298.15 K | 0.0065
in 2-ethoxyethanol, 300.95 K | 0.0074
in 2-ethoxyethanol, 303.25 K | 0.0081
in 2-ethoxyethanol, 310.15 K | 0.0106
in 2-ethoxyethanol, 314.55 K | 0.0126
in 2-ethoxyethanol, 318.75 K | 0.0148
in 2-ethoxyethanol, 323.65 K | 0.0182
in 2-ethoxyethanol, 328.05 K | 0.0212
in 2-ethoxyethanol, 333.15 K | 0.0259
in 2-ethoxyethanol, 343.25 K | 0.0352
in 2-ethoxyethanol, 348.35 K | 0.042
in 2-ethoxyethanol, 353.15 K | 0.0478
in THF, 293.25 K | 0.151
in THF, 298.15 K | 0.175
in THF, 304.35 K | 0.2
in THF, 308.25 K | 0.223
in THF, 314.25 K | 0.253
in THF, 318.45 K | 0.285
in THF, 323.15 K | 0.315
in THF, 328.25 K | 0.346
in acetone, 293.15 K | 0.0295
in acetone, 296.45 K | 0.0349
in acetone, 300.25 K | 0.0423
in acetone, 304.35 K | 0.0496
in acetone, 308.25 K | 0.0588
in acetone, 314.25 K | 0.0782
in acetone, 318.35 K | 0.093
in acetone, 323.15 K | 0.117
in acetonitrile, 298.25 K | 0.004
in acetonitrile, 303.55 K | 0.006
in acetonitrile, 308.25 K | 0.0082
in acetonitrile, 313.35 K | 0.0122
in acetonitrile, 318.35 K | 0.017
in acetonitrile, 323.45 K | 0.0243
in acetonitrile, 328.15 K | 0.0332
in acetonitrile, 333.25 K | 0.0457
in dichloromethane, 293.35 K | 0.099
in dichloromethane, 295.95 K | 0.111
in dichloromethane, 300.35 K | 0.139
in dichloromethane, 303.15 K | 0.158
in dichloromethane, 306.05 K | 0.179
in dichloromethane, 310.35 K | 0.219
in diethyl ether, 293.15 K | 0.0101
in diethyl ether, 296.25 K | 0.0122
in diethyl ether, 299.05 K | 0.014
in diethyl ether, 300.35 K | 0.0154
in diethyl ether, 303.15 K | 0.0178
in diethyl ether, 306.05 K | 0.0211
in ethanol, 298.25 K | 0.0096
in ethanol, 300.95 K | 0.0099
in ethanol, 303.25 K | 0.0102
in ethanol, 308.15 K | 0.011
in ethanol, 313.45 K | 0.0119
in ethanol, 318.75 K | 0.0129
in ethanol, 323.05 K | 0.0136
in ethanol, 328.35 K | 0.0147
in ethyl acetate, 298.15 K | 0.0592
in ethyl acetate, 300.95 K | 0.0655
in ethyl acetate, 303.25 K | 0.0699
in ethyl acetate, 308.25 K | 0.0829
in ethyl acetate, 313.25 K | 0.0983
in ethyl acetate, 319.05 K | 0.119
in ethyl acetate, 323.15 K | 0.136
in ethyl acetate, 328.25 K | 0.159
in n-heptane, 298.15 K | 0.0035
in n-heptane, 303.45 K | 0.0039
in n-heptane, 308.35 K | 0.0044
in n-heptane, 313.05 K | 0.0049
in n-heptane, 318.25 K | 0.0056
in n-heptane, 323.35 K | 0.0062
in n-heptane, 328.25 K | 0.0069
in n-heptane, 333.15 K | 0.0075
in toluene, 298.05 K | 0.0572
in toluene, 300.95 K | 0.065
in toluene, 303.35 K | 0.0717
in toluene, 310.25 K | 0.0904
in toluene, 314.45 K | 0.106
in toluene, 318.65 K | 0.123
in toluene, 323.55 K | 0.15
in toluene, 327.95 K | 0.173
in toluene, 333.15 K | 0.209
in toluene, 338.25 K | 0.246

CP(=O)(O)c1ccccc1
Details | solubility (mole fraction)
in 2-ethoxyethanol, 298.15 K | 0.252
in 2-ethoxyethanol, 303.15 K | 0.289
in 2-ethoxyethanol, 313.25 K | 0.348
in 2-ethoxyethanol, 318.15 K | 0.397
in 2-ethoxyethanol, 323.35 K | 0.441
in 2-ethoxyethanol, 328.25 K | 0.472
in 2-ethoxyethanol, 333.15 K | 0.519
in 2-ethoxyethanol, 338.45 K | 0.587
in 2-ethoxyethanol, 343.35 K | 0.639
in 2-ethoxyethanol, 348.35 K | 0.697
in 2-ethoxyethanol, 353.15 K | 0.751
in acetone, 293.15 K | 0.0473
in acetone, 298.15 K | 0.0609
in acetone, 303.25 K | 0.0816
in acetone, 308.15 K | 0.0995
in acetone, 313.35 K | 0.127
in acetone, 318.15 K | 0.165
in acetone, 323.25 K | 0.204
in benzene, 293.25 K | 0.0386
in benzene, 298.15 K | 0.0541
in benzene, 303.15 K | 0.0809
in benzene, 308.35 K | 0.113
in benzene, 313.25 K | 0.163
in benzene, 318.15 K | 0.218
in benzene, 323.25 K | 0.301
in benzene, 328.15 K | 0.419
in benzene, 333.35 K | 0.563
in chloroform, 293.15 K | 0.112
in chloroform, 298.25 K | 0.132
in chloroform, 303.15 K | 0.156
in chloroform, 308.35 K | 0.188
in chloroform, 313.15 K | 0.214
in chloroform, 318.45 K | 0.255
in chloroform, 323.15 K | 0.288
in chloroform, 328.15 K | 0.34
in dichloromethane, 288.55 K | 0.0465
in dichloromethane, 293.65 K | 0.0697
in dichloromethane, 296.15 K | 0.0904
in dichloromethane, 298.35 K | 0.104
in dichloromethane, 303.25 K | 0.164
in dichloromethane, 308.35 K | 0.235
in ethanol, 293.25 K | 0.205
in ethanol, 298.15 K | 0.266
in ethanol, 303.35 K | 0.333
in ethanol, 308.25 K | 0.39
in ethanol, 313.55 K | 0.486
in ethanol, 318.45 K | 0.614
in ethanol, 323.15 K | 0.734
in ethanol, 328.25 K | 0.872
in ethyl acetate, 288.35 K | 0.0484
in ethyl acetate, 293.15 K | 0.0621
in ethyl acetate, 298.25 K | 0.075
in ethyl acetate, 303.45 K | 0.0941
in ethyl acetate, 313.35 K | 0.152
in ethyl acetate, 318.15 K | 0.182
in ethyl acetate, 328.15 K | 0.265
in ethyl acetate, 333.35 K | 0.304
in ethyl acetate, 338.15 K | 0.359
in ethyl acetate, 343.25 K | 0.428
in methanol, 298.35 K | 0.317
in methanol, 303.15 K | 0.343
in methanol, 308.15 K | 0.372
in methanol, 313.25 K | 0.406
in methanol, 318.35 K | 0.439
in methanol, 323.15 K | 0.471
in methanol, 328.25 K | 0.499
in toluene, 293.25 K | 0.12
in toluene, 298.35 K | 0.147
in toluene, 303.25 K | 0.168
in toluene, 308.35 K | 0.204
in toluene, 313.15 K | 0.229
in toluene, 323.25 K | 0.327
in toluene, 328.35 K | 0.377
in toluene, 333.25 K | 0.418
in toluene, 338.15 K | 0.479
in toluene, 343.45 K | 0.564
in water, 298.15 K | 0.0154
in water, 303.35 K | 0.0204
in water, 310.45 K | 0.027
in water, 314.25 K | 0.032
in water, 320.45 K | 0.0414
in water, 324.15 K | 0.0477
in water, 329.25 K | 0.0579
in water, 333.65 K | 0.0679
in water, 338.75 K | 0.0865
in water, 343.45 K | 0.0968
in water, 348.25 K | 0.12

O=[PH](O)c1ccccc1
Details | solubility (mole fraction)
in 2-ethoxyethanol, 288.15 K | 0.124
in 2-ethoxyethanol, 293.85 K | 0.136
in 2-ethoxyethanol, 298.25 K | 0.148
in 2-ethoxyethanol, 303.45 K | 0.165
in 2-ethoxyethanol, 313.15 K | 0.205
in 2-ethoxyethanol, 318.25 K | 0.227
in 2-ethoxyethanol, 323.65 K | 0.239
in 2-ethoxyethanol, 328.25 K | 0.259
in 2-ethoxyethanol, 333.45 K | 0.283
in 2-ethoxyethanol, 338.35 K | 0.308
in 2-ethoxyethanol, 343.25 K | 0.344
in 2-ethoxyethanol, 348.25 K | 0.372
in 2-ethoxyethanol, 353.25 K | 0.397
in 2-ethoxyethanol, 358.55 K | 0.434
in 2-ethoxyethanol, 363.15 K | 0.459
in acetone, 293.35 K | 0.0305
in acetone, 298.15 K | 0.0448
in acetone, 303.55 K | 0.0671
in acetone, 308.25 K | 0.0879
in acetone, 313.45 K | 0.124
in acetone, 318.25 K | 0.186
in acetone, 323.35 K | 0.256
in benzene, 299.15 K | 0.054
in benzene, 303.65 K | 0.0709
in benzene, 308.55 K | 0.111
in benzene, 313.25 K | 0.145
in benzene, 318.45 K | 0.225
in benzene, 323.15 K | 0.308
in benzene, 328.35 K | 0.415
in benzene, 333.15 K | 0.554
in chloroform, 293.15 K | 0.134
in chloroform, 298.45 K | 0.157
in chloroform, 303.25 K | 0.186
in chloroform, 308.25 K | 0.228
in chloroform, 313.15 K | 0.269
in chloroform, 318.35 K | 0.315
in chloroform, 323.25 K | 0.357
in dichloromethane, 288.15 K | 0.0292
in dichloromethane, 293.35 K | 0.0386
in dichloromethane, 296.25 K | 0.0458
in dichloromethane, 298.15 K | 0.0528
in dichloromethane, 303.45 K | 0.0709
in dichloromethane, 308.25 K | 0.091
in ethanol, 283.25 K | 0.0889
in ethanol, 288.65 K | 0.112
in ethanol, 293.15 K | 0.136
in ethanol, 298.35 K | 0.168
in ethanol, 303.45 K | 0.205
in ethanol, 308.25 K | 0.245
in ethanol, 313.45 K | 0.297
in ethanol, 318.55 K | 0.356
in ethanol, 323.35 K | 0.42
in ethyl acetate, 293.45 K | 0.0144
in ethyl acetate, 298.15 K | 0.0185
in ethyl acetate, 303.25 K | 0.0275
in ethyl acetate, 313.45 K | 0.0494
in ethyl acetate, 318.25 K | 0.0661
in ethyl acetate, 328.35 K | 0.107
in ethyl acetate, 333.25 K | 0.136
in ethyl acetate, 338.55 K | 0.174
in methanol, 293.55 K | 0.173
in methanol, 298.15 K | 0.215
in methanol, 303.75 K | 0.28
in methanol, 308.35 K | 0.344
in methanol, 313.45 K | 0.429
in methanol, 318.25 K | 0.526
in methanol, 323.65 K | 0.655
in toluene, 293.15 K | 0.0187
in toluene, 298.35 K | 0.0282
in toluene, 303.45 K | 0.0389
in toluene, 313.25 K | 0.0652
in toluene, 318.15 K | 0.0934
in toluene, 323.35 K | 0.125
in toluene, 328.15 K | 0.162
in toluene, 333.55 K | 0.199
in toluene, 338.45 K | 0.255
in toluene, 343.15 K | 0.316
in toluene, 348.35 K | 0.413
in water, 297.79 K | 0.0095
in water, 300.25 K | 0.0111
in water, 302.4 K | 0.0129
in water, 305.22 K | 0.0159
in water, 309.93 K | 0.0218
in water, 312.84 K | 0.0305
in water, 318.15 K | 0.0433
in water, 323.35 K | 0.0572
in water, 328.15 K | 0.085
in water, 333.45 K | 0.11
in water, 338.25 K | 0.161
in water, 343.15 K | 0.208
